Experimental data published in US6703397B2, “Pyrimidinyl methyl indole derivatives with antibacterial activity” (Basilea Pharmaceutica AG, priority 2000, dated 2004).
In brackets after ≈: the same amount, converted by molar mass. Read-outs that look alike come from different tables or passages of the source.

What was measured:
[1] = test system: Streptococcus pneumoniae ATCC 49619; experiment: MIC against Streptococcus pneumoniae ATCC 49619 (trimethoprim- and penicillin-susceptible reference strain); assay type: cell-based
Description: The following Tables 1 and 2 contain inhibitory concentrations determined in the above test for representative members of the class of compound defined by formula I. The following microorganisms were tested: Col. 1: […]

[2] = test system: Streptococcus pneumoniae 1/1; experiment: MIC against Streptococcus pneumoniae 1/1 (trimethoprim- and penicillin-resistant clinical isolate, serotype 6); assay type: cell-based
Description: The following Tables 1 and 2 contain inhibitory concentrations determined in the above test for representative members of the class of compound defined by formula I. The following microorganisms were tested: […]
Col. 2: MIC Spn1/1; μg/ml (Streptococcus pneumoniae 1/1, Trimethoprim- and Penicillin-resistant, Serotype 6; clinical isolate, stored at −80° C.). Lit.: H. Locher et al., Can. J. Infect. Dis. 6: Suppl. C, p 469C.

[3] = molecular target: purified DHFR of strain Spn1/1 (Streptococcus pneumoniae serotype 4, UniProt Q54801, E20D/I100L/L135F/P70S/Q81H); experiment: biochemical
Description: Col. 3: DHFR Spn1/1; μM)—the IC50-values in μM against the purified DHFR of the above strain Spn1/1; of Streptococcus pneumoniae.

[4] = ATCC49619, Streptococcus pneumoniae ATCC 49619, trimethoprim- and penicillin-susceptible, read-out: Spn 49619 MIC
[5] = Streptococcus pneumoniae 1/1, trimethoprim- and penicillin-resistant, serotype 6, read-out: Spn 1/1 MIC

purified DHFR of strain Spn1/1, sequence (Q54801 whole entry E20D/P70S/Q81H/I100L/L135F): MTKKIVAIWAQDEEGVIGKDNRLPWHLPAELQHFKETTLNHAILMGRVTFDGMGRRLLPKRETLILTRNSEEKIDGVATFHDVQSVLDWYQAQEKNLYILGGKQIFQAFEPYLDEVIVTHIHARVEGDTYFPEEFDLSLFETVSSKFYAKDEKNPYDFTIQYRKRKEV

Structure (SMILES) | MIC [1, 4] [µg/mL] | MIC [2, 5] [µg/mL] | IC50 [3] [nM] | MIC ([1]; Streptococcus pneumoniae, ATCC49619, read-out: Spn 49619 MIC) [µg/mL] | MIC ([2]; Streptococcus pneumoniae, 1/1, read-out: Spn 1/1 MIC) [µg/mL]
CCn1cc(CN2CCOCC2)c2c(OS(=O)(=O)CC3CC3)cc(Cc3cnc(N)nc3N)cc21 [Example 10e, Cyclopropyl-methanesulfonic acid 6-(2,4-diamino-pyrimidin-5-ylmethyl)-1-ethyl-3-morpholin-4-ylmethyl-1H-indol-4-yl ester] | 0.125 (≈ 0.25 µM) | 4 (≈ 7.99 µM) | 4.8 | – | –
CCn1cc(C=O)c2c(OS(=O)(=O)C(C)C)cc(Cc3cnc(N)nc3N)cc21 [Example 11, Propane-2-sulfonic acid 6-(2,4-diamino-pyrimidin-5-ylmethyl)-1-ethyl-3-formyl-1H-indol-4-yl ester] | – | – | 93 | 0.25 (≈ 0.599 µM) | > 8
CCn1cc(C)c2c(OS(=O)(=O)C(C)C)cc(Cc3cnc(N)nc3N)cc21 [Example 12a, Propane-2-sulfonic acid 6-(2,4-diamino-pyrimidin-5-ylmethyl)-1-ethyl-3-methyl-1H-indol-4-yl ester] | 0.125 (≈ 0.31 µM) | 4 (≈ 9.91 µM) | 15 | – | –
CCn1cc(C)c2c(OS(=O)(=O)CC3CC3)cc(Cc3cnc(N)nc3N)cc21 [Example 12b, Cyclopropyl-methanesulfonic acid 6-(2,4-diamino-pyrimidin-5-ylmethyl)-1-ethyl-3-methyl-1H-indol-4-yl ester] | ≤ 0.015 | 4 (≈ 9.63 µM) | 3.7 | – | –
CCn1cc(Br)c2c(OCC3CC3)cc(Cc3cnc(N)nc3N)cc21 [Example 13, 5-(3-Bromo-4-cyclopropylmethoxy-1-ethyl-1H-indol-6-ylmethyl)-pyrimidine-2,4-diamine] | 0.125 (≈ 0.3 µM) | 4 (≈ 9.61 µM) | 42 | – | –
CCOc1cc(Cc2cnc(N)nc2N)cc2c1cc(C)n2CC [Example 15a, 5-(4-Ethoxy-1-ethyl-2-methyl-1H-indol-6-ylmethyl)-pyrimidine-2,4-diamine] | 0.25 (≈ 0.768 µM) | 8 (≈ 24.6 µM) | 56 | – | –
CCn1c(C)cc2c(OCC3CC3)cc(Cc3cnc(N)nc3N)cc21 [Example 15b, 5-(4-Cyclopropylmethoxy-1-ethyl-2-methyl-1H-indol-6-ylmethyl)-pyrimidine-2,4-diamine] | 0.5 (≈ 1.42 µM) | 8 (≈ 22.8 µM) | 20 | – | –
CCOc1cc(Cc2cnc(N)nc2N)cc2c1c(-c1cccc(OC)c1)cn2CC [Example 17a, 5-[4-Ethoxy-1-ethyl-3-(3-methoxy-phenyl)-1H-indol-6-ylmethyl]-pyrimidine-2,4-diamine] | 0.5 (≈ 1.2 µM) | 8 (≈ 19.2 µM) | 6.3 | – | –
CCn1cc(-c2cccc(OC)c2)c2c(OC)cc(Cc3cnc(N)nc3N)cc21 [Example 17b, 5-[1-Ethyl-4-methoxy-3-(3-methoxy-phenyl)-1H-indol-6-ylmethyl]-pyrimidine-2,4-diamine] | 0.5 (≈ 1.24 µM) | 8 (≈ 19.8 µM) | 4.3 | – | –
